According to patent US20050171036A1, “Use of antitumor indolopyrrolocarbazole derivative and other anticancer agent in combination” (priority 2002, published 2005):

Experiments:
Assay type in all cases: in vivo
[1] = system: P388 mouse leukemia cells; test: Survival of mice with intraperitoneal P388 leukemia, combined use (Example 2); conditions: CDF1 mice, P388 i.p., single i.p. dose day 1, Compound A 75, CDDP 1.67, ADM 1.5, VP-16 7.5 mg/kg; for Number of days survived (average ± standard deviation): complete remission counted as 60 days; for Increased life span (ILS %): versus control
Protocol: P388 mouse leukemia cells (1×10^6 cells) were transplanted intraperitoneally per mouse (day 0). One drug or two drugs were intraperitoneally administered on the next day (day 1). […] The ratio of increased life span (ILS %) was determined according to the following equation: ILS %=((the number of survived days for the group treated with drug)/(the number of survived days for the control group without drug)−1)×100
The combination index (CI) showing combination effect was determined by the following equation in accordance with the method by Uchida et al. (Uchida et al., Gan to Kagaku Ryouhou (Cancer and Chemotherapy), 25, 75-78 (1998)) based on the ILS % obtained from the treatment using one drug and the ILS % obtained from the combined treatment. CI=ILS % of the combined treatment/(ILS % with J-107088 (Compound A) alone+ILS % with another drug)
CI>1: synergistic effect, CI=1: additive effect, CI<1: antagonistic effect

[2] = system: P388 mouse leukemia cells; test: Survival of mice with intraperitoneal P388 leukemia, equivalent-ILS doses (Example 4); conditions: CDF1 mice, P388 i.p.; single i.p. dose day 1; Compound A 25 mg/kg alone, ADM 1.5 mg/kg alone, Compound A 5 + ADM 0.3 mg/kg
Protocol: P388 mouse leukemia cells (1×10^6 cells) were transplanted intraperitoneally per mouse (day 0). One drug or two drugs were intraperitoneally administered on the next day (day 1). […] The ratio of increased life span (ILS %) was determined in the same manner as in Example 2.

[3] = Toxicity of equivalent-ILS doses given intraperitoneally for 5 consecutive days (Example 4); conditions: ADM 1.5 mg/kg alone, Compound A 5 + ADM 0.3 mg/kg
Protocol: This dose was intraperitoneally administered to mice once a day for consecutive 5 days. Thereafter, whether the animal was alive or dead was observed, and the effect of lowering toxicity was judged. As the toxicity index, the changes in the body weight between that before the administration and that on the subsequent day after the administration were recorded.

| SMILES | Number of days survived (average ± standard deviation) [1] | Increased life span (ILS %) [1] | Ratio of increased life span (ILS %) [2] | Change in body weight (g) ([3]; before administration versus day after administration, i.p. once a day for 5 days) | Number of dead animals/number of animals per group ([3]; i.p. once a day for 5 consecutive days, Compound A 25 mg/kg alone) |
| --- | --- | --- | --- | --- | --- |
| COc1cccc2c1C(=O)c1c(O)c3c(c(O)c1C2=O)C[C@@](O)(C(=O)CO)C[C@@H]3O[C@H]1C[C@H](N)[C@H](O)[C@H](C)O1 [ADM, adriamycin (doxorubicin)] | 19.0 ± 1.9 days | 65% | 92% | +0.1 g | 0/4 |
| [NH2][Pt]([NH2])([Cl])[Cl] [CDDP, cisplatin] | 25.4 ± 19.6 days | 121% | – | – | – |
| COc1cc([C@@H]2c3cc4c(cc3[C@@H](O[C@@H]3O[C@@H]5CO[C@@H](C)O[C@H]5[C@H](O)[C@H]3O)[C@H]3COC(=O)[C@H]23)OCO4)cc(OC)c1O [VP-16, etoposide] | 17.4 ± 4.1 days | 51% | – | – | – |
